Results on six compounds are retold here after ChEMBL document CHEMBL5385962, “Beyond inhibition against the PD-1/PD-L1 pathway: development of PD-L1 inhibitors targeting internalization and degradation of PD-L1” (RSC Med Chem, 2024).

In general, IC50 refers to the concentration needed to halve the response being measured. As usually defined, the DC50 is the concentration giving 50% degradation.

The test system of one assay is BGC-823. Briefly: PD-L1 degradation in human PD-L1 […] BGC-823 cells assessed as PD-L1 degradation rate at 10 to 20 uM incubated for 5 days by flow cytometry relative to control. The settings on record: dose 10-20 µM, time 5 day. For orientation: Flow cytometry measures light scatter and fluorescence of single cells or particles in a stream.
The next assay has as its system A-375. Briefly: Antiproliferative activity against human A-375 cells assessed as reduction in cell viability. It is filed as functional, cell-based.
The subject of the next assay is B16-F10. The experiment in a line: Antiproliferative activity against mouse B16-F10 cells assessed as reduction in cell viability. It is filed as functional, cell-based.
Assay [1] addresses Programmed cell death protein 1/Programmed cell death 1 ligand 1 (Homo sapiens, UniProt Q9NZQ7). Briefly: Inhibition of PD-1/PD-L1 interaction (unknown origin) incubated for 24 hrs by HTRF assay. It is filed as protein-complex assay. In general terms: In TR-FRET formats the signal depends on donor and acceptor labels being close together.
The target of assay [2] is Programmed cell death 1 ligand 1 (Mus musculus) (UniProt Q9EP73). Briefly: Induction of PD-L1 degradation in mouse CT26 cells.
Assay [3] has the same target. Briefly: Induction of PD-L1 degradation in mouse B16-F10 cells.
Assay [4] can be described thus: Antitumor activity against humanized mouse MC38-hPD-L1 cells implanted in hPD-1 knockin C57BL/6 mouse assessed as reduction in tumor cell proliferation at 10 mg/kg, ip administered for 7 days starting from day 7 post tumor implantation by flow cytometry analysis relative to control. More on the design: scale not given: the % may be the effect or the level left. As to conditions: time 7 day.

Assay [5] deals with MC-38. Briefly: Antitumor activity against mouse MC38 cells xenografted in BALB/c nude mouse assessed as inhibition of tumor growth at 2 mg/kg, po BID administered twice daily for 14 days relative to control. It is filed as functional. Further details: scale not given: the % may be the effect or the level left. The settings on record: time 14 day.
Assay [6] deals with MC-38. Briefly: Antitumor activity against mouse MC38 cells xenografted in BALB/c nude mouse assessed as inhibition of tumor growth at 20 mg/kg, po BID administered twice daily for 14 days relative to control. It is filed as functional. Further details: scale not given: the % may be the effect or the level left. The settings on record: time 14 day.
Assay [7] has as its system MC-38. Briefly: Antitumor activity against mouse MC38 cells xenografted in BALB/c nude mouse assessed as inhibition of tumor growth at 200 mg/kg, po BID administered twice daily for 14 days relative to control. It is filed as functional. Further details: scale not given: the % may be the effect or the level left. As to conditions: time 14 day.

Programmed cell death protein 1/Programmed cell death 1 ligand 1, sequence (Q15116 whole entry): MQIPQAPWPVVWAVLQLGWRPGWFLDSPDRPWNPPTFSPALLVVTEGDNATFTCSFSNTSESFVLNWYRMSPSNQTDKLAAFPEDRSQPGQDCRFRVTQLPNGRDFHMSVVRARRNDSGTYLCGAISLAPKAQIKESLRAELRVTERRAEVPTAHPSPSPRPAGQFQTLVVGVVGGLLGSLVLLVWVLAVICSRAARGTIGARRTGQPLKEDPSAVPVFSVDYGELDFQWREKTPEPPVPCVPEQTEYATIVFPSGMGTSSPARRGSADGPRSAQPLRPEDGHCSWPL
Programmed cell death protein 1/Programmed cell death 1 ligand 1, sequence (Q9NZQ7 whole entry): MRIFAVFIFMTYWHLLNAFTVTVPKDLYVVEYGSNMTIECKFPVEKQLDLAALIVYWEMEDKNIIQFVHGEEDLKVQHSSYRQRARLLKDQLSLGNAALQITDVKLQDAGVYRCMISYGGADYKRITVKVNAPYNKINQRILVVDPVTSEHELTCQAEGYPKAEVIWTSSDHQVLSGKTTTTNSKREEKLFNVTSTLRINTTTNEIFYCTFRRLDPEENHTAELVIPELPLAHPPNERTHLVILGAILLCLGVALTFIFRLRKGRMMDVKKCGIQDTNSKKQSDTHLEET

Turning to `Cc1nc(C)c(C(=O)OCc2ccccc2)c(CC(C)(C)C)c1C(=O)OCc1ccccc1`, the PD-L1 degradation rate with BGC-823 was 66.99%.

On to `COc1cc(OCc2cccc(-c3ccccc3)c2C)cc(OC)c1CNCCNC(=O)c1cn(CCOCCOCCOCCNc2cccc3c2C(=O)N(C2CCC(=O)NC2=O)C3=O)nn1` (stereo not given), for which the IC50 came to 8.07 µM in the assay with A-375 and 14 µM in the assay on B16-F10.

The compound `Cc1c(NC(=O)c2nc3c(n2C)CCN(C[C@H](C)O)C3)cccc1-c1cccc(NC(=O)c2nc3c(n2C)CCN(C)C3)c1Cl` showed an IC50 in [1] below 0.001 µM.

Take `Cc1c(COc2cc(OCc3cccc(C#N)c3)c(CN3C[C@H](O)C[C@@H]3C(=O)O)cc2Cl)cccc1-c1ccc2c(c1)OCCO2`: the values for the DC50 in assay [2] and in assay [3] were 0.35 µM and 0.39 µM, respectively.

Regarding `Cc1c(NC(=O)c2ccc(CNCCO)cn2)cccc1-c1cccc(NC(=O)c2ccc(CNCCO)cn2)c1C`, the Activity in [4] amounted to 60.4%.

With `Cc1c(Nc2nccc3cc(CN4CC[C@@H](O)C4)cnc23)cccc1-c1cccc(-c2nc3cc(CN4CC[C@@H](C(=O)O)C4)cc(C#N)c3o2)c1C`, the Activity in the assay with MC-38 [5] was 32%; in the assay on MC-38 [6], 66%; in the assay with MC-38 [7], 69%.
